The values that follow are results of earlier work, collected in patent US20240415829A1, “METHODS AND COMPOSITIONS FOR THE TREATMENT OF DRUG OVERDOSE” (priority 2023, published 2024).

For data set [1] the following is noted: xylazine 0.15 mg/kg, sheep 58-69 kg.
The conditions of data set [2]: human clinical trials.
For data set [3] the following is noted: results from other studies; individuals with OUD, tobacco use disorder, AUD.

In the case of `Cc1cccc(C)c1NC1=NCCCS1` [xylazine], in data set [1], the “sedation, respiration, blood pressure and heart rate effects” value was “significant sedation/decreased respiration and decreased blood pressure/heart rate”. The “adverse effects leading to termination of human trials” value in data set [2] was “severe hypotension and central nervous system (CNS) depressant effects”. In the case of `COC(=O)[C@@H]1[C@H]2C[C@H]3c4[nH]c5ccccc5c4CCN3C[C@@H]2CC[C@@H]1O` [yohimbine], the “doses supported for safe use in humans” value in data set [3] was “up to 60 mg”.
